The values that follow come from US10894775B2, “Piperidine derivatives as liver X receptor beta agonists, compositions, and their use” (Merck Sharp & Dohme Corp., priority 2016, dated 2021).

Read-outs that look alike come from different tables or passages of the source.

For assay [1], the target named is T1, glutathione-S-transferase (GST) tagged LXRbeta LBD (ligand binding domain) (Homo sapiens, UniProt P55055).
T1 construct: purchased Invitrogen pv4658.pps
T1 sequence (P55055 222-460 limits assumed): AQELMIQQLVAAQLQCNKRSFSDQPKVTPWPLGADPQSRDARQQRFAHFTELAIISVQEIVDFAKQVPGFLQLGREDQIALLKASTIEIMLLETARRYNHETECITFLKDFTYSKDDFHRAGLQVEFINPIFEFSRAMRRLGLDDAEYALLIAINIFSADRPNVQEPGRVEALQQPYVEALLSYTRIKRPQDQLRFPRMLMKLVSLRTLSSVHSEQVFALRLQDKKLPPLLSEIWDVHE
Description: LanthaScreen TR-FRET Liver X Receptor Coactivator Assay, LXR beta. The class given is biochemical. The settings on record: for EC50: potency (Inflection Point) of compound-induced co-activator recruitment, TR-FRET; for Emax: read-out: LXR beta actiivty at max dose (%). On the procedure: (§1) While running the LanthaScreen™ TR-FRET Liver X Receptor Coactivator Assay, LXR alpha-LBD or LXR beta-LBD was added to ligand test compounds followed by addition of a mixture of a fluorescein-labelled coactivator peptide and terbium-conjugated anti-GST antibody. After an incubation period at room temperature, TR-FRET (time-resolved fluorescence resonance energy transfer) was measured using a filter-based instrument capable of TR-FRET, e.g. PerkinElmer Envision.

The target of assay [2] is T2, glutathione-S-transferase (GST) tagged LXRalpha LBD (ligand binding domain) (Homo sapiens, UniProt Q13133).
T2 construct: purchased Invitrogen pv4655
T2 sequence (Q13133 209-447 limits assumed): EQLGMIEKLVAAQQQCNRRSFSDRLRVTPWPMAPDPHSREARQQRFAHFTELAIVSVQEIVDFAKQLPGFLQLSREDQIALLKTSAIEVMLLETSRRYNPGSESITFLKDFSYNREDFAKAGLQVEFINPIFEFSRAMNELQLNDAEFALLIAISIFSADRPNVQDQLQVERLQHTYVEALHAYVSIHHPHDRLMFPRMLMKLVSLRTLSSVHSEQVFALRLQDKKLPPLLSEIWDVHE
Description: LanthaScreen TR-FRET Liver X Receptor Coactivator Assay, LXR alpha. The class given is biochemical. The settings on record: for LXR alpha IP (nM) / EC50: potency (Inflection Point) of compound-induced co-activator recruitment, TR-FRET; for Emax: read-out: LXR alpha actiivty at max dose (%). How it is done:
as §1
Background: Time-resolved FRET reads energy transfer from a long-lived donor to a nearby acceptor.

[3] abbreviates: efficacy (Emax) in relation to reference dual agonist T0901317.

`CC(CCCC1CCN(C(=O)[C@](O)(c2ccccc2)C(F)(F)F)CC1)Nc1ccc(C(=O)N(C)C)c(Cl)c1` (single isomer, unassigned) [Example 4-4, 2-chloro-N,N-dimethyl-4-((R or S)-5-(1-((R or S)-3,3,3-trifluoro-2-hydroxy-2-phenylpropanoyl)piperidin-4-yl)pentan-2-ylamino)benzamide]: in assay [1] (setting [3]), the “LXR beta actiivty at max dose (%)” value is recorded as 59%. In assay [1] (read-out: LXR beta IP), the EC50 was determined as 325 nM. Further, the “LXR alpha actiivty at max dose (%)” value in assay [2] (setting [3]) is reported as 7%. The “LXR alpha IP (nM)” value in assay [2] is reported as “No IP”.

As for `CNC(=O)c1ccc(NCCC[C@@H]2CC23CCN(C(=O)[C@](O)(C(C)C)C(F)(F)F)CC3)cc1Cl` (single isomer, unassigned) [Example 6-9, 2-chloro-4-(3-((R or S)-6-((R or S)-2-hydroxy-3-methyl-2-(trifluoromethyl)butanoyl)-6-azaspiro[2.5]octan-1-yl)propylamino)-N-methylbenzamide], the Emax is 60% in assay [1] (setting [3]) and 64% in assay [2] (setting [3]). Also, the values for the EC50 in assay [1] (read-out: LXR beta IP) and in assay [2] (read-out: LXR alpha IP) were 21 nM and 869 nM, respectively.

With `CN(C)C(=O)c1ccc(CCCCC2CCN(C(=O)C(O)(c3ccccc3)C(F)(F)F)CC2)cc1Cl` (single isomer, unassigned) [Example 15-3, (S or R)-2-chloro-N,N-dimethyl-4-(4-(1-(3,3,3-trifluoro-2-hydroxy-2-phenylpropanoyl)piperidin-4-yl)butyl)benzamide], the “LXR beta actiivty at max dose (%)” value in assay [1] (setting [3]) stood at 116%. The EC50 in assay [1] (read-out: LXR beta IP) amounted to 31 nM; in assay [2] (read-out: LXR alpha IP), 846 nM. Further, in assay [2] (setting [3]), the “LXR alpha actiivty at max dose (%)” value is on record as 36%.

Consider `CN(C)C(=O)c1ccc(CCCCCC2CCN(C(=O)C(O)(c3ccccc3)C(F)(F)F)CC2)cc1Cl` (single isomer, unassigned) [Example 15-8, (R or S)-2-chloro-N,N-dimethyl-4-(5-(1-(3,3,3-trifluoro-2-hydroxy-2-phenylpropanoyl)piperidin-4-yl)pentyl)benzamide], for which the Emax in assay [1] (setting [3]) was found to be 79%. The EC50 in assay [1] (read-out: LXR beta IP) is 9 nM; in assay [2] (read-out: LXR alpha IP) it was 236 nM. The “LXR alpha actiivty at max dose (%)” value in assay [2] (setting [3]) is reported as 29%.

For the molecule `CN(C)C(=O)c1ccc(NCCCCC2CCN(C(=O)C(O)(c3ccccc3)C(F)(F)F)CC2)cc1Cl` (single isomer, unassigned) [Example 1-15, (S or R)-2-chloro-N,N-dimethyl-4-(4-(1-(3,3,3-trifluoro-2-hydroxy-2-phenylpropanoyl)piperidin-4-yl)butylamino)benzamide], the figures for the Emax in assay [1] (setting [3]) and in assay [2] (setting [3]) were 72% and 43%, respectively. The EC50 in assay [1] (read-out: LXR beta IP) was 3 nM; in assay [2] (read-out: LXR alpha IP), 147 nM.

In the case of `CN(C)C(=O)c1ccc(NC[C@H]2C[C@@H]2C2CCN(C(=O)[C@](O)(c3ccccc3)C(F)(F)F)CC2)cc1Cl` (single isomer, unassigned) [Example 8-2, 2-chloro-N,N-dimethyl-4-(((1S,2R or 1R,2S)-2-(1-((R or S)-3,3,3-trifluoro-2-hydroxy-2-phenylpropanoyl)piperidin-4-yl)cyclopropyl)methylamino)benzamide], the Emax turned out to be 75% in assay [1] (setting [3]) and 34% in assay [2] (setting [3]). Further, the EC50 came to 14 nM in assay [1] (read-out: LXR beta IP) and 516 nM in assay [2] (read-out: LXR alpha IP).

On to `COc1cccc([C@@](O)(C(=O)N2CCC3(CC2)CC(CCCc2ccc(C(=O)N(C)C)c(Cl)c2)C3)C(F)(F)F)c1` (single isomer, unassigned) [Example 16-1, 2-chloro-N,N-dimethyl-4-(3-(7-((R or S)-3,3,3-trifluoro-2-hydroxy-2-(3-methoxyphenyl)propanoyl)-7-azaspiro 13.51 nonan-2-yl)propyl)benzamide], for which the EC50 was 132 nM in assay [1] (LXR beta IP (nM)) and 1540 nM in assay [2] (LXR alpha IP (nM)). Further, the Emax in assay [1] was 100%; in assay [2], 19%.

Regarding `CN(C)C(=O)c1ccc(CCC[C@H]2CC23CCN(C(=O)[C@](O)(c2ccccc2)C(F)(F)F)CC3)cc1Cl` (single isomer, unassigned) [Example 17-2, 2-chloro-N,N-dimethyl-4-(3-((S or R)-6-((R or S)-3,3,3-trifluoro-2-hydroxy-2-phenylpropanoyl)-6-azaspiro[2.5]octan-1-yl)propyl)benzamide], the results for the Emax in assay [1] (setting [3]) and in assay [2] (setting [3]) were 128% and 35%, respectively. Besides, the EC50 worked out at 25 nM in assay [1] (read-out: LXR beta IP) and 395 nM in assay [2] (read-out: LXR alpha IP).

In the case of `COc1cccc([C@@](O)(C(=O)N2CCC([C@H]3C[C@H]3CSc3ccc(C(=O)N(C)C)c(Cl)c3)CC2)C(F)(F)F)c1` (single isomer, unassigned) [Example 23-1, 2-chloro-N,N-dimethyl-4-(((1R,2R or 1S,2S)-2-(1-((R or S)-3,3,3-trifluoro-2-hydroxy-2-(3-methoxyphenyl)propanoyl)piperidin-4-yl)cyclopropyl)methylthio)benzamide], the Emax in assay [1] (setting [3]) was 118%; in assay [2] (setting [3]), 24%. Moreover, the EC50 in assay [1] (read-out: LXR beta IP) is 27 nM; in assay [2] (read-out: LXR alpha IP), 946 nM.

In the case of `CNC(=O)c1ccc(NCCCCC2CCN(C(=O)C(O)(c3cccc(OC(C)C)c3)C(F)(F)F)CC2)cc1Cl` (single isomer, unassigned) [Example 1-10, (S or R)-2-chloro-N-methyl-4-(4-(1-(3,3,3-trifluoro-2-hydroxy-2-(3-isopropoxyphenyl)propanoyl)piperidin-4-yl)butylamino)benzamide], the Emax in assay [1] (setting [3]) was 68%; in assay [2] (setting [3]), 19%. Besides, the results for the EC50 in assay [1] (read-out: LXR beta IP) and in assay [2] (read-out: LXR alpha IP) were 14 nM and 2090 nM, respectively.

As to `CN(C)C(=O)c1ccc(NCCCC2CCN(S(=O)(=O)c3c(Cl)cccc3Cl)CC2)cc1Cl` [Example 1-12, 2-chloro-4-(3-(1-(2,6-dichlorophenylsulfonyl)piperidin-4-yl)propylamino)-N,N-dimethylbenzamide], the values for the Emax in assay [1] (setting [3]) and in assay [2] (setting [3]) were 82% and 46%, respectively. Besides, the results for the EC50 in assay [1] (read-out: LXR beta IP) and in assay [2] (read-out: LXR alpha IP) were 27 nM and 855 nM, respectively.

In the case of `COc1cccc([C@@](O)(C(=O)N2CCC(CC3CC(Nc4ccc(C(=O)N(C)C)c(Cl)c4)C3)CC2)C(F)(F)F)c1` (single isomer, unassigned) [Example 11-1, 2-chloro-N,N-dimethyl-4-((1R,3s)-3-((1-((R or S)-3,3,3-trifluoro-2-hydroxy-2-(3-methoxyphenyl)propanoyl)piperidin-4-yl)methyl)cyclobutylamino)benzamide], the EC50 in assay [1] (read-out: LXR beta IP) is 8 nM. The Emax in assay [1] was found to be 85%. In addition, in assay [2], the “LXR alpha IP (nM)” value is given as “No IP” and the Emax is 12%.

Consider `CN(C)C(=O)c1ccc(NCCC[C@H]2CC23CCN(C(=O)[C@@](O)(c2ccccc2)C(F)(F)C(F)(F)F)CC3)cc1Cl` (single isomer, unassigned) [Example 6-7, 2-chloro-N,N-dimethyl-4-(3-((S or R)-6-((S or R)-3,3,4,4,4-pentafluoro-2-hydroxy-2-phenylbutanoyl)-6-azaspiro[2.5]octan-1-yl)propylamino)benzamide], for which the Emax in assay [1] (setting [3]) is 91%; in assay [2] (setting [3]) it was 9%. Besides, the EC50 in assay [1] (read-out: LXR beta IP) turned out to be 68 nM. The “LXR alpha IP (nM)” value in assay [2] was “No IP”.

On to `CN(C)C(=O)c1ccc(CCCCCC2CCN(C(=O)C(O)(c3ccccc3)C(F)(F)F)CC2)cc1Cl` (single isomer, unassigned) [Example 15-9, (S or R)-2-chloro-N,N-dimethyl-4-(5-(1-(3,3,3-trifluoro-2-hydroxy-2-phenylpropanoyl)piperidin-4-yl)pentyl)benzamide], for which, in assay [1] (setting [3]), the “LXR beta actiivty at max dose (%)” value came to 84%. For the same molecule, the EC50 in assay [1] (read-out: LXR beta IP) was determined as 240 nM. Besides, in assay [2] (setting [3]), the “LXR alpha actiivty at max dose (%)” value came out at 4%. Also, the “LXR alpha IP (nM)” value in assay [2] is on record as “No IP”.

Regarding `CN(C)C(=O)c1c(F)cc(NCCC[C@H]2CC23CCN(C(=O)[C@](O)(c2ccccc2)C(F)(F)F)CC3)cc1F` (single isomer, unassigned) [Example 6-5, 2,6-difluoro-N,N-dimethyl-4-(3-((S or R)-6-((R or S)-3,3,3-trifluoro-2-hydroxy-2-phenylpropanoyl)-6-azaspiro[2.5]octan-1-yl)propylamino)benzamide], the figures for the Emax in assay [1] (setting [3]) and in assay [2] (setting [3]) were 24% and 19%, respectively. Besides, the EC50 was determined as 49 nM in assay [1] (read-out: LXR beta IP) and 2150 nM in assay [2] (read-out: LXR alpha IP).
